Results on two molecules are retold here after patent US20070196349A1, “Whitening composition containing reduced coenzyme Q” (KANEKA CORPORATION, priority 2004, published 2007).

For test [1], the system named is Normal human dermal fibroblasts (NHDF). As to the kind of experiment: Effect for protecting cells from oxidation stress in dermal fibroblasts (cellular ATP level after hydrogen peroxide). The test is classed as cell-based. As to conditions: for ATP level: 1 mM hydrogen peroxide for 15 minutes. On the procedure: Normal human dermal fibroblasts (NHDF: product of Kurabo Industries, Ltd.) were incubated in the basal medium Medium 106S (product of Kurabo Industries, Ltd.) supplemented with 2% fetal bovine serum, 10 μg/ml of heparin, 1 μg/ml of hydrocortisone, 10 ng/ml of human recombinant epidermal growth factor, and 3 ng/ml of human recombinant basic fibroblast growth factor under conditions of 37° C. and 5% CO2. After confluence, the cells were seeded onto a 96-well microplate (2.0×10^3 cells/well). In seeding, Medium 106S (product of Kurabo Industries, Ltd.) supplemented with 2% fetal bovine serum, 10 μg/ml of heparin, and 1 μg/ml of hydrocortisone was used. After 24 hours culture, the medium was exchanged to the same medium supplemented with a sample specimen, and after 24 hours, it was exchanged to Medium 106S (product of Kurabo Industries, Ltd.) supplemented with 2% fetal bovine serum, 10 μg/ml of heparin, 1 μg/ml of hydrocortisone, 7.5 μg/ml of coenzyme A, and a sample specimen in order to further culture for 48 hours. After that, the medium was removed to be exchange to the medium supplemented with 1 mM hydrogen peroxide (product of Wako Pure Chemical Industries), and then the cells were incubated for 15 minutes followed by rinsing with PBS, and cellular ATP level was determined using ATP assay kit (product of PerkinElmer) for comparison. The parametrical multiple comparison (Turkey type) was carried out in statistical processing, and the symbol “†” refers that the percentage of risk is less than 5% in comparison with the control group containing solvent only.

For test [2] the test system is unchanged. The test can be described thus: Cell activation-promoting effect in dermal fibroblasts (cellular ATP level). The class given is cell-based. The following applies: for ATP level: 48 hours culture with sample. How it is done:
Normal human dermal fibroblasts (NHDF: product of Kurabo Industries, Ltd.) were incubated in the basal medium Medium 106S (product of Kurabo Industries, Ltd.) supplemented with 2% fetal bovine serum, 10 μg/ml of heparin, 1 μg/ml of hydrocortisone, 10 ng/ml of human recombinant epidermal growth factor, and 3 ng/ml of human recombinant basic fibroblast growth factor under conditions of 37° C. and 5% CO2. After confluence, the cells were seeded onto a 96-well microplate (2.0×10^3 cells/well). In seeding, Medium 106S (product of Kurabo Industries, Ltd.) supplemented with 2% fetal bovine serum, 10 μg/ml of heparin, and 1 μg/ml of hydrocortisone was used. After 24 hours culture, the medium was exchanged to the same medium supplemented with a sample specimen in order to further culture for 48 hours. After that, the medium was removed and then the cells were rinsed with PBS, and cellular ATP level was determined using ATP assay kit (product of PerkinElmer) for comparison. The parametrical multiple comparison (Turkey type) was carried out in statistical processing, and the symbol “*” refers that the percentage of risk is less than 5%, and the symbol “**” refers that the percentage of risk is less than 1%, in comparison with the control group containing solvent only. In addition, the symbol “†” at the numerical value refers that the percentage of risk is less than 5% in comparison with oxidized coenzyme Q10.

A further test deals with brown guinea pigs. The test can be described thus: Inhibitory effect on pigmentation due to ultraviolet radiation. The class given is in vivo, guinea pig. As to conditions: average of scores (Table 1) of six brown guinea pigs, #=(L1−L0)−(L′1−L′0), sample vs medium, UVB-irradiated dorsal skin, polyethylene glycol ointment containing 10 parts by weight of reduced coenzyme Q10 applied once a day for one month. How it is done: The dorsal hair of six brown guinea pigs was carefully shaved with a clipper or shaver, and the shaved dorsal skin of each guinea pig was irradiated with ultraviolet beams (UVB: wavelength 250 to 350 nm) in the minimum erythema dose at two square portions of 2 cm′2 cm on the right and left of the dorsal median. The ultraviolet irradiation was performed once every other day for three days to induce erythema. Also, a medium and a sample were continuously applied to the respective irradiated portions (erythema portions) once a day for one month to examine the inhibitory action on pigmentation. As the sample, a polyethylene glycol ointment containing 10 parts by weight of reduced coenzyme Q10 was used. As the medium, only polyethylene glycol was used. Evaluation was performed by measurement with a color-difference meter, and an L value was calculated from the observed Munsell value.
Namely, DL (change with time) of the medium-applied portion was subtracted from DL (change with time) of the opposite sample-applied portion to obtain a value (#) according to the following equation: #=(L1−L0)−(L′1−L′0)
L0: Test portion before application of the sample
L′0: Test portion before application of the medium
L1: Sample-applied test portion one month after continuous application
L′1: Medium-applied test portion one month after continuous application […]

Marks after values point to notes of the source that are not given here.

Consider `COC1=C(OC)C(=O)C(C/C=C(\C)CC/C=C(\C)CC/C=C(\C)CC/C=C(\C)CC/C=C(\C)CC/C=C(\C)CC/C=C(\C)CC/C=C(\C)CC/C=C(\C)CCC=C(C)C)=C(C)C1=O` [Oxidized coenzyme Q10, oxidized coenzyme Q10, reference compound], for which the ATP level in test [1] (8.13 μg/ml) is 82.29 ± 9.08 nM; in test [1] (100 μg/ml), 103.41 ± 1.17 nM; in test [2] (0.12 μg/ml), 183.23 ± 62.70 nM; in test [2] (0.98 μg/ml) it was 224.84 ± 43.55* nM. Further, the “cellular ATP level compared with the solvent control” value in test [2] (result in words) is “significantly increase the cellular ATP level”.

Turning to `COc1c(O)c(C)c(C/C=C(\C)CC/C=C(\C)CC/C=C(\C)CC/C=C(\C)CC/C=C(\C)CC/C=C(\C)CC/C=C(\C)CC/C=C(\C)CC/C=C(\C)CCC=C(C)C)c(O)c1OC` [Reduced coenzyme Q10, reduced coenzyme Q10], the ATP level in test [1] (8.13 μg/ml) is recorded as 73.93 ± 4.96 nM; in test [1] (100 μg/ml), 112.47 ± 5.45 nM; in test [2] (0.12 μg/ml) it was 277.21 ± 46.02**† nM; in test [2] (0.98 μg/ml), 267.24 ± 20.72** nM. Moreover, the “cellular ATP level compared with the solvent control” value in test [1] (100 μg/ml, hydrogen peroxide oxidation stress, result in words) is recorded as “significantly increase the cellular ATP level”; in test [2] (result in words) it was “significantly increase the cellular ATP level”. Further, in test [2] (result in words), the “cellular ATP level, reduced compared with oxidized coenzyme Q10” value is on record as “significantly increase the cellular ATP level”. The Average evaluation score is 2.17 in the test with brown guinea pigs and 2 (0 ≦ # < 0.5) in the test with brown guinea pigs (listed as reduced coenzyme Q10).
